Experimental data: PMC6888270 (International Journal of Molecular Sciences, 2019)
Square brackets hold non-standard residues; d marks the D form. Peptide text beside a SMILES is read from it. d(hArg(Et2)) = CCN=C(NCC)NCCCC[C@@H](N)C(=O)O; hArg(Et2) = CCN=C(NCC)NCCCC[C@H](N)C(=O)O; dPhe(4-Cl) = N[C@H](Cc1ccc(Cl)cc1)C(=O)O; d2Nal = N[C@H](Cc1ccc2ccccc2c1)C(=O)O; dCit = NC(=O)NCCC[C@@H](N)C(=O)O; d3Pal = N[C@H](Cc1cccnc1)C(=O)O

Experiments:
Type in all cases: cell-based
[1] = target: T1, GnRH receptor (GnRHR) (Homo sapiens, UniProt P30968); experiment: BRET (CAMYEL) measurement of cAMP accumulation in SH-SY5Y/GnRHR cells; set-up: HA (hemagglutinin); expressed in transfected cells
T1 sequence (P30968 1-328): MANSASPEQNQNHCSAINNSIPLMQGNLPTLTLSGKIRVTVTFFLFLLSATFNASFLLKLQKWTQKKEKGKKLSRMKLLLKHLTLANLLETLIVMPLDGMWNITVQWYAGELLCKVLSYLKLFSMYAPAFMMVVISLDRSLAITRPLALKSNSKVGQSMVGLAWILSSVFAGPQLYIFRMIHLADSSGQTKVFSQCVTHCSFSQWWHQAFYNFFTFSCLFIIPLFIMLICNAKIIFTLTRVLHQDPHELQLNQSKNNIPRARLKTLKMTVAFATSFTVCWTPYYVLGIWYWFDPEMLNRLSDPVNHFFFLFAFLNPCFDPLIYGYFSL
Method: (§1) Different transfection protocols were followed, depending on the endpoint to be measured. For BRET experiments, 3 × 10^4 cells were transiently transfected using vectors expressing the cAMP-CAMYEL or the aequorin-Ca^2+ BRET biosensor-encoding cDNA [59], as appropriate, together with the GnRHR-HA-encoding vector. Transfections were performed in a 96-well plate using the Metafectene PRO reagent (Biontex, München, Germany), as previously described. […]
(§2) cAMP accumulation was measured in cells transiently expressing both the BRET-based cAMP biosensor CAMYEL [64] and GnRHR. […] BRET signals were detected at 475 and 535 nm wavelengths upon the addition of 5 µM Coelenterazine H (NanoLight Technologies). […]
(§3) BRET experiments were performed using a CLARIOstar plate reader equipped by a monocromator (BMG Labtech, Ortenberg, Germany), as previously described.
(§4) Data were plotted on graphs as means ± standard error of means (SEM). […] Data distributions were analyzed by D’Agostino and Pearson normality tests and inhibition of intracellular Ca^2+ increase by different concentrations of antagonist were compared using two-way analysis of variance (ANOVA), followed by Bonferroni post-test or Kruskal-Wallis and proper post-test. cAMP accumulation was represented as acceptor:donor emission ratio (induced BRET changes) after basal subtraction (untreated cells). […]

[2] = target: T1, GnRH receptor (GnRHR); experiment: BRET measurement of GnRH-induced intracellular Ca2+ increase in HEK293/GnRHR cells; set-up: HA (hemagglutinin); expressed in transfected cells; host or cells: HEK293 (transient co-transfection with BRET biosensor); conditions: means ± SEM, n = 6
Method: Different transfection protocols were followed, depending on the endpoint to be measured. For BRET experiments, 3 × 10^4 cells were transiently transfected using vectors expressing the cAMP-CAMYEL or the aequorin-Ca^2+ BRET biosensor-encoding cDNA [59], as appropriate, together with the GnRHR-HA-encoding vector. Transfections were performed in a 96-well plate using the Metafectene PRO reagent (Biontex, München, Germany), as previously described. 100 ng of the receptor-encoding vector + 100 ng of the BRET biosensor-encoding vector were used for co-transfecting HEK293 cells, while SH-SY5Y cells were co-transfected using 200 ng of the receptor-encoding vector + 100 ng of the BRET biosensor-encoding vector. 200 ng of the aequorin-Ca^2+ BRET biosensor-encoding cDNA were used for transfecting LβT2 cells. Each sample was prepared in duplicate, cultured for 48 h and serum-starved over-night before experiments.
To evaluate Ca^2+ increase, cells were incubated in Hank’s Balanced Salt Solution (HBSS) with Ca^2+ and Mg^2+, 1 mM Hepes and 5 µM Coelenterazine H (NanoLight Technologies, a division of Prolume, Ltd., Pinetop, AZ, USA), for 45 minutes, together with Cetrorelix, Ganirelix, Teverelix or vehicle, as appropriate. […] The EC50 was extrapolated from the curve obtained from each cell line. Cells treated by 5 µM of the sarco/endoplasmic reticulum Ca^2+ ATPase enzyme inhibitor, thapsigargin (Tocris Bioscience), served as positive control. Treatment by the vehicle (HBSS) was the negative control and used as a normalizer.
as §3
Data were plotted on graphs as means ± standard error of means (SEM). The kinetics of intracellular Ca^2+ increase was represented by the BRET biosensor emission after background subtraction (vehicle). […] Data distributions were analyzed by D’Agostino and Pearson normality tests and inhibition of intracellular Ca^2+ increase by different concentrations of antagonist were compared using two-way analysis of variance (ANOVA), followed by Bonferroni post-test or Kruskal-Wallis and proper post-test. cAMP accumulation was represented as acceptor:donor emission ratio (induced BRET changes) after basal subtraction (untreated cells). Dose-response curves were obtained by data interpolation using non-linear regressions and normalized as percentage of the maximal response. EC50s, as well as half-maximal inhibitory concentrations (IC50), were compared by t-test or Mann–Whitney U test, while results obtained by Western blotting and qRT-PCR data were compared by one-way ANOVA followed by Bonferroni post-test. Statistical differences were considered as significant for p < 0.05. These analyses were performed using the GraphPad Prism software (GraphPad Software Inc., San Diego, CA, USA).

[3] = target: T1, GnRH receptor (GnRHR); experiment: BRET (CAMYEL) measurement of cAMP accumulation in HEK293/GnRHR cells; set-up: HA (hemagglutinin); expressed in transfected cells; host or cells: HEK293 (transient co-transfection with BRET biosensor)
Method: as §1, §2, §3, §4

[4] = read-out: IC50 of inhibition of GnRH-induced cAMP accumulation
[5] = 3 × EC50 GnRH + 1 pM antagonist
[6] = 3 × EC50 GnRH + 10 pM antagonist
[7] = 3 × EC50 GnRH + 100 pM antagonist
[8] = 3 × EC50 GnRH + 1 nM antagonist
[9] = 3 × EC50 GnRH + 75 nM antagonist
[10] = 3 × EC50 GnRH + 100 nM antagonist
[11] = 3 × EC50 GnRH + 1 µM antagonist

Compound | IC50 [1, 4] [nM] | AUC of the kinetics of intracellular Ca2+ response [2, 5] | AUC of the kinetics of intracellular Ca2+ response [2, 6] | AUC of the kinetics of intracellular Ca2+ response [2, 7] | AUC of the kinetics of intracellular Ca2+ response [2, 8] | AUC of the kinetics of intracellular Ca2+ response ([2]; 3 × EC50 GnRH + 10 nM antagonist) | AUC of the kinetics of intracellular Ca2+ response [2, 9] | AUC of the kinetics of intracellular Ca2+ response [2, 10] | AUC of the kinetics of intracellular Ca2+ response [2, 11] | IC50 [3, 4] [nM] | IC50 [1] [nM] | IC50 [3] [nM]
CCN=C(NCC)NCCCC[C@H](NC(=O)[C@H](CC(C)C)NC(=O)[C@@H](CCCCNC(=NCC)NCC)NC(=O)[C@H](Cc1ccc(O)cc1)NC(=O)[C@H](CO)NC(=O)[C@@H](Cc1cccnc1)NC(=O)[C@@H](Cc1ccc(Cl)cc1)NC(=O)[C@@H](Cc1ccc2ccccc2c1)NC(C)=O)C(=O)N1CCC[C@H]1C(=O)N[C@H](C)C(N)=O [Ganirelix] (Ac-[d2Nal][dPhe(4-Cl)][d3Pal]SY[d(hArg(Et2))]L[hArg(Et2)]P[dA]-NH2; N-terminus and C-terminus assumed) | 16.6 ± 3.76 | 76,189 ± 18,564 | 91,896 ± 21,766 | 101,943 ± 27,388 | 66,665 ± 16,035 | 73,164 ± 16,237 | 43,870 ± 4193 | 34,734 ± 13,731 | 3346 ± 2977 | 0.61 | – | –
CC(=O)N[C@H](Cc1ccc2ccccc2c1)C(=O)N[C@H](Cc1ccc(Cl)cc1)C(=O)N[C@H](Cc1cccnc1)C(=O)N[C@@H](CO)C(=O)N[C@@H](Cc1ccc(O)cc1)C(=O)N[C@H](CCCNC(N)=O)C(=O)N[C@@H](CC(C)C)C(=O)N[C@@H](CCCNC(=N)N)C(=O)N1CCC[C@H]1C(=O)N[C@H](C)C(N)=O [Cetrorelix] (Ac-[d2Nal][dPhe(4-Cl)][d3Pal]SY[dCit]LRP[dA]-NH2) | – | 78,113 ± 29,979 | 124,981 ± 33,684 | 126,243 ± 34,982 | 71,127 ± 25,268 | – | 18,632 ± 4423 | 8946 ± 3296 | 3264 ± 3024 | – | 1.56 ± 2.49 | 0.84
